Assay: Solution calorimetry (Thermometrics Microcalorimeter) in ethanol at 25° C.
Assay type: physicochemical
Conditions: for Heat of Solution: in ethanol at 25° C.
Procedure: Solution calorimetry was determined using a Thermometrics Microcalorimeter in ethanol at 25° C. The solubilities were likewise determined at 25° C.

Question: For `C/C(=C\c1csc(C)n1)[C@@H]1CC2O[C@]2(C)CCC[C@H](C)[C@H](O)[C@@H](C)C(=O)C(C)(C)[C@@H](O)CC(=O)N1` (single isomer, unassigned) [Form A, [1S-[1R*,3R*(E),7R*,10S*,11R*,12R*,16S*]]-7,11-Dihydroxy-8,8,10,12,16-pentamethyl-3-[1-methyl-2-(2-methyl-4-thiazolyl)ethenyl]-4-aza-17-oxabicyclo[14.1.0]heptadecane-5,9-dione, Form A], which “Relative stability of the polymorph forms” value (concluded from the data, particularly the heat of solution) is on record?
Answer: Its value is “more stable”.

Question: What about the “Heat of Solution” value of the same compound?
Answer: Its value is 4.92 kcal/mol.

Question: Which “Heat of Solution” value does the source give for `C/C(=C\c1csc(C)n1)[C@@H]1CC2O[C@]2(C)CCC[C@H](C)[C@H](O)[C@@H](C)C(=O)C(C)(C)[C@@H](O)CC(=O)N1` (single isomer, unassigned) [Form B, [1S-[1R*,3R*(E),7R*,10S*,11R*,12R*,16S*]]-7,11-Dihydroxy-8,8,10,12,16-pentamethyl-3-[1-methyl-2-(2-methyl-4-thiazolyl)ethenyl]-4-aza-17-oxabicyclo[14.1.0]heptadecane-5,9-dione, Form B] here?
Answer: The value was 2.36 kcal/mol.

From patent US6982276B2, “Polymorphs of an epothilone analog” (Bristol-Myers Squibb Company, priority 2000, dated 2006)
